pIC50: −log10 of the molar value. Bounds are passed on as bounds.

Data set [1] concerns the target Metabotropic glutamate receptor 1 (Rattus norvegicus, UniProt P23385). Nature of the data set: Antagonist activity at rat mGluR1 expressed in 1321N1 cells. It is filed as functional, cell-based.
Data set [2] addresses Metabotropic glutamate receptor 5 (Rattus norvegicus, UniProt P31424). Description: Antagonist activity at rat mGluR5 expressed in 1321N1 cells. In kind it is functional, cell-based.
Data set [3] deals with Rattus norvegicus. Description: Efficacy in rat Chung spinal nerve L5/L6 ligation pain model after 30 mins at 100 umol/kg, ip. In kind it is functional.
Data set [4] has as its system Rattus norvegicus. Nature of the data set: Efficacy in ip dosed rat Chung spinal nerve L5/L6 ligation pain model after 30 mins. In kind it is functional. The settings on record: 0.5 h.
Data set [5] has as its system Rattus norvegicus. Nature of the data set: Drug level in rat brain at 30 umol/kg, ip. It is filed as ADME, organism-based. The settings on record: in vivo.
The species entered for data set [6] is Rattus norvegicus. Nature of the data set: Free drug level in rat brain. It is filed as ADME, organism-based. The settings on record: in vivo.
The species entered for data set [7] is Rattus norvegicus. Description: Protein binding in rat brain. In kind it is ADME, organism-based. To be noted: in vivo.
For data set [8], the system named is Rattus norvegicus. Nature of the data set: Efficacy in ip dosed rat osteoarthritic pain model after 30 mins. It is filed as functional. To be noted: 0.5 h.
In data set [9] the test system is Rattus norvegicus. Nature of the data set: Activity in ip dosed rat locomotor model. In kind it is functional.
Data set [10] has as its system Rattus norvegicus. Description: Activity in ip dosed rat Rotarod model. It is filed as functional. (In general: Falling from the rotarod earlier than controls is read as motor impairment.)
In data set [11] the target is Metabotropic glutamate receptor 2 (Homo sapiens, UniProt Q14416). Description: Antagonist activity at human mGluR2 expressed in 1321N1 cells. It is filed as functional, cell-based.
Chain of Metabotropic glutamate receptor 2 (Q14416 whole entry): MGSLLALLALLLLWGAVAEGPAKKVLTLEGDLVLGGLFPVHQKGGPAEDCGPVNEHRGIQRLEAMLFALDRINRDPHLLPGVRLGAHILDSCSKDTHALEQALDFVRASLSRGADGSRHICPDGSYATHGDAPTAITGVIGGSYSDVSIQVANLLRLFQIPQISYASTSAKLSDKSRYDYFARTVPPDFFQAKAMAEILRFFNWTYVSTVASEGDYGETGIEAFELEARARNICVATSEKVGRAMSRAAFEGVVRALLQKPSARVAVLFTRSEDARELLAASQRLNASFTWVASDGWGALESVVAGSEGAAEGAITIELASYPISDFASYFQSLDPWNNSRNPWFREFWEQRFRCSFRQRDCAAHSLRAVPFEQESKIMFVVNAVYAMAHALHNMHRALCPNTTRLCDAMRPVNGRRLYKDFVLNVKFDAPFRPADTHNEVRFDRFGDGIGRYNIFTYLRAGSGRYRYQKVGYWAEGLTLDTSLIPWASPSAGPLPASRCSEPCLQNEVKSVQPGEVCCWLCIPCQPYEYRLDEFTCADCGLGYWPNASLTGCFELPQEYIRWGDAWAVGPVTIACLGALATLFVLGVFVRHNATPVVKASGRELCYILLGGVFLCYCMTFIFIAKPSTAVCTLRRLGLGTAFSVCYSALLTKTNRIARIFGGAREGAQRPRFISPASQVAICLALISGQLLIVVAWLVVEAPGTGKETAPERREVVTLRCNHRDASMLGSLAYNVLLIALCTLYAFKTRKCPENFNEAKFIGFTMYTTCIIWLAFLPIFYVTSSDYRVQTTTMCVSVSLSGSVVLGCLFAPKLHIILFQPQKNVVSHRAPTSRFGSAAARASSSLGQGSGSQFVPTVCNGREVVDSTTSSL
In data set [12] the target is Metabotropic glutamate receptor 4 (Homo sapiens, UniProt Q14833). Description: Antagonist activity at human mGluR4 expressed in 1321N1 cells. It is filed as functional, cell-based.
Chain of Metabotropic glutamate receptor 4 (Q14833 whole entry): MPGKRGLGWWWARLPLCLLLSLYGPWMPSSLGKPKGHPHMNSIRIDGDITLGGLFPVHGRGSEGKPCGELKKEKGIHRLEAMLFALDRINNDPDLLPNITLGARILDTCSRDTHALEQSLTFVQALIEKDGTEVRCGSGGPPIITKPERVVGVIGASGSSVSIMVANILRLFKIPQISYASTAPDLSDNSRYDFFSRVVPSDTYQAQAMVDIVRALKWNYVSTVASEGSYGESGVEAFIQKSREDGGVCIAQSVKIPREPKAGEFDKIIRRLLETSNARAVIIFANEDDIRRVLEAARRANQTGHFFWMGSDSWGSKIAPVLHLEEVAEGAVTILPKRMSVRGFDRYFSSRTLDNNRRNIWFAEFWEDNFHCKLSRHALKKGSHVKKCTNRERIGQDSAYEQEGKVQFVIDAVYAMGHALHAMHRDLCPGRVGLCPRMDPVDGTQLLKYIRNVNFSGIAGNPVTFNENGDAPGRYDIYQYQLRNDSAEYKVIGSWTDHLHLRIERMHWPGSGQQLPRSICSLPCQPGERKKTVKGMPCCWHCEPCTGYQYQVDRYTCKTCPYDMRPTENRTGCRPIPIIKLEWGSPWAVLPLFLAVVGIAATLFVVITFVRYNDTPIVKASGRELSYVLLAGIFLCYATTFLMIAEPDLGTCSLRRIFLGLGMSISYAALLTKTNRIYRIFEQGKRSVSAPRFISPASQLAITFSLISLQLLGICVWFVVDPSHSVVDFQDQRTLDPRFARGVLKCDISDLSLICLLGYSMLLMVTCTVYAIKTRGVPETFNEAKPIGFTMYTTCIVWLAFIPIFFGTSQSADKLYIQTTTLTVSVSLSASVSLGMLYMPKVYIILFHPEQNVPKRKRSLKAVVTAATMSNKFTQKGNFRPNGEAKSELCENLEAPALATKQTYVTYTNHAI
The target in data set [13] is Metabotropic glutamate receptor 7 (Homo sapiens, UniProt Q14831). Nature of the data set: Antagonist activity at human mGluR7 expressed in 1321N1 cells. It is filed as functional, cell-based.
Chain of Metabotropic glutamate receptor 7 (Q14831 whole entry): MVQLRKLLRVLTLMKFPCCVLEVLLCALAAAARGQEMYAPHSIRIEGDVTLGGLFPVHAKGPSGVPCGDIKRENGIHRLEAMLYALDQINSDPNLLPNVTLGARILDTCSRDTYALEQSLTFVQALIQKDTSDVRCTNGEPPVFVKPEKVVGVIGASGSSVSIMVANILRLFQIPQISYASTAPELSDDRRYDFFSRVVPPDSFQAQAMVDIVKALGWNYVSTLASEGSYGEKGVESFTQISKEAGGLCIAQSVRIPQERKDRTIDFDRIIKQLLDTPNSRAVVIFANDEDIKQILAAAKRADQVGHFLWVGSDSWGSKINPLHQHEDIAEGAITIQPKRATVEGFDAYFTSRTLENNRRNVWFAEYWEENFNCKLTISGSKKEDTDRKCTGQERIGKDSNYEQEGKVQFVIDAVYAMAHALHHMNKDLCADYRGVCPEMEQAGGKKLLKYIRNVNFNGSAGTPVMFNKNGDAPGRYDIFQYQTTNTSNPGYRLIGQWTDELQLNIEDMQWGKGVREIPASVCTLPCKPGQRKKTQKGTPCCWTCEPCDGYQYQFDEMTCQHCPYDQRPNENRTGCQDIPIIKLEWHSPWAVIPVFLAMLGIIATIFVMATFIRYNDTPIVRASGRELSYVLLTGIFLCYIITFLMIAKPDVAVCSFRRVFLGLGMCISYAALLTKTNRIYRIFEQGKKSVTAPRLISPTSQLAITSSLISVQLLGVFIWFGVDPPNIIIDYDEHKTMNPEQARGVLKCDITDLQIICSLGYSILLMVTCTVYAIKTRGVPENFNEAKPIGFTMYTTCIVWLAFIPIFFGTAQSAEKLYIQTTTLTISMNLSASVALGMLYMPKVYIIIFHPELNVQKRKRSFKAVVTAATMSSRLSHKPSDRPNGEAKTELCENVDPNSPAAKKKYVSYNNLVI
In data set [14] the test system is Rattus norvegicus. Nature of the data set: Efficacy in ip dosed rat CFA model after 30 mins. The settings on record: 0.5 h. It is filed as functional.
The subject of data set [15] is Rattus norvegicus. Description: Efficacy in ip dosed rat Carrageenan model after 30 mins. In kind it is functional. The settings on record: 0.5 h.
Data set [16] relates to Rattus norvegicus. Description: Efficacy in ip dosed rat skin incision model after 30 mins. In kind it is functional. The settings on record: 0.5 h.
Data set [17] deals with Rattus norvegicus. Description: Efficacy in ip dosed rat formalin model after 30 mins. It is filed as functional. To be noted: 0.5 h.

Chain of Metabotropic glutamate receptor 5 (P31424 whole entry): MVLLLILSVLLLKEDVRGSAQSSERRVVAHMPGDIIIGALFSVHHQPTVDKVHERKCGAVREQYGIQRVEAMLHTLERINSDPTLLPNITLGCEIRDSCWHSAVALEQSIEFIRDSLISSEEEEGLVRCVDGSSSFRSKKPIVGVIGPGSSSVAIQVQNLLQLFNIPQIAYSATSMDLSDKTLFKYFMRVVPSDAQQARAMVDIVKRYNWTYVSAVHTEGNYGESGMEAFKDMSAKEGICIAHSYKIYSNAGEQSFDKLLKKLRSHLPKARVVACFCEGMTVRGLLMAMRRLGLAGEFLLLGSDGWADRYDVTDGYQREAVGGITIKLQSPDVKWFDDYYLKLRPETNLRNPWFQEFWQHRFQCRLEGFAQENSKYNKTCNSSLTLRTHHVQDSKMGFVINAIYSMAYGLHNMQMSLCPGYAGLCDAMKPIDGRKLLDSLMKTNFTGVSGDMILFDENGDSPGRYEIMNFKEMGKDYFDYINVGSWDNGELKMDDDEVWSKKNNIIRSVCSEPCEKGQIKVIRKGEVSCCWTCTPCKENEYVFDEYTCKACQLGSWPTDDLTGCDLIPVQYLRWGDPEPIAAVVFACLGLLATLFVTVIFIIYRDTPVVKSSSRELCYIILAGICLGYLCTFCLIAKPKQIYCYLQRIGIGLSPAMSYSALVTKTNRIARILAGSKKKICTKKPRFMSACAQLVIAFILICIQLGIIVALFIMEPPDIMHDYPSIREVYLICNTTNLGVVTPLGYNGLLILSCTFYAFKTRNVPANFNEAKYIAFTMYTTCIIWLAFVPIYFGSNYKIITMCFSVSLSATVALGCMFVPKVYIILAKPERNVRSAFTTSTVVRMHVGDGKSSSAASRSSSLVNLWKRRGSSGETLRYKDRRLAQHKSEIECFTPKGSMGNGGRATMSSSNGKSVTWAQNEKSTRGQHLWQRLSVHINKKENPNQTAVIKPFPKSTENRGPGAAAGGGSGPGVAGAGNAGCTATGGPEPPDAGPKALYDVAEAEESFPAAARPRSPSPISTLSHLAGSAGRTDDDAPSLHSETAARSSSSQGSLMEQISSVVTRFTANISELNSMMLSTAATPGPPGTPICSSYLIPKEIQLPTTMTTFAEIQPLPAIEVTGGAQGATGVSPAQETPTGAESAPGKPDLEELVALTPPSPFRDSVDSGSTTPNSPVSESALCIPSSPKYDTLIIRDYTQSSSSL
Chain of Metabotropic glutamate receptor 1 (P23385 whole entry): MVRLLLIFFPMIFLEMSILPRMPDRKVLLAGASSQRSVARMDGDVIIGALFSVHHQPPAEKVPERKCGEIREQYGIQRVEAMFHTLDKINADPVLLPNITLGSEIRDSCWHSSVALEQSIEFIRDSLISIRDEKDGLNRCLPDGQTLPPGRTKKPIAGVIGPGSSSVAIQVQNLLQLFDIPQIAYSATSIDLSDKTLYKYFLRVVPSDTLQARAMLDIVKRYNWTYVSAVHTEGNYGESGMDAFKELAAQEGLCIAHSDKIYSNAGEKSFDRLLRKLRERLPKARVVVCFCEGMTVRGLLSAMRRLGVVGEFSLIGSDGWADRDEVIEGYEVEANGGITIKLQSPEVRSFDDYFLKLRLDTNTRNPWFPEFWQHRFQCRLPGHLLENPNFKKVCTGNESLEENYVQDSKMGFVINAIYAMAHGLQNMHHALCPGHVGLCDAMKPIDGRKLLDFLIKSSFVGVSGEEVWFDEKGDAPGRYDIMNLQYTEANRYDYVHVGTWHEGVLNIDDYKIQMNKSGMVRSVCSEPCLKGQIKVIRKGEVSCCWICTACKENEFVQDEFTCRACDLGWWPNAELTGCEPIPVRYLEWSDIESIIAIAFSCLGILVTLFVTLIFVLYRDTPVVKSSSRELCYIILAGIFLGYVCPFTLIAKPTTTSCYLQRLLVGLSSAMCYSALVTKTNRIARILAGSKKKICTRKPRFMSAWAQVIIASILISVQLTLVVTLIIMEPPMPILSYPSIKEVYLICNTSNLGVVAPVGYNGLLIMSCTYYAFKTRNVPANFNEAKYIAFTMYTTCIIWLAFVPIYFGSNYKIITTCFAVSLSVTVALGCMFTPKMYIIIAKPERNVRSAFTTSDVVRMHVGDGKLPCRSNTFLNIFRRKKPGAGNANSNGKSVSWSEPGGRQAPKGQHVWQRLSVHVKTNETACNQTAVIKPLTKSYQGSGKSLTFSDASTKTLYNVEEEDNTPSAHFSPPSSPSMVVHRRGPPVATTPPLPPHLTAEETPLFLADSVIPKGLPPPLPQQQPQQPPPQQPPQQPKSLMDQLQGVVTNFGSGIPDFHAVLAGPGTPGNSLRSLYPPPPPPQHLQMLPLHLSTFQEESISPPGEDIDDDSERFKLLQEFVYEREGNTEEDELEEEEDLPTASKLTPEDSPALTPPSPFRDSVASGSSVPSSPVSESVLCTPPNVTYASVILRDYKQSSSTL

One may read the pIC50 as the IC50 on a negative log10 scale, so that one unit is a factor of ten. A low value points to a large IC50. Consider `CCc1ccc(-n2cnc3c(sc4nccc(N(C)CCc5ccccn5)c43)c2=O)cc1`, for which the pIC50 in data set [1] is 7.28; in [2], less than 5.00. The same compound yielded an Efficacy with Rattus norvegicus [3] of 11%.

The term ED50 denotes the midpoint of the dose-response relation. Low readings indicate an effect at a small dose, high ones a need for a large dose. `Cc1ccc(-n2cnc3c(sc4cncc(N(C)C)c43)c2=O)cc1F`: in the data set with Rattus norvegicus [4], the 50% effect level (ED50) was put at a dose of 55 µmol/kg. Besides, the pIC50 in data set [1] is 7.68; in [2], less than 5.00. This compound had an Efficacy with Rattus norvegicus [3] of 72%. Also, the Activity with Rattus norvegicus [5] is given as 125 ng/g; in the data set filed under Rattus norvegicus [6], 0.13 ng/g; in the data set listed under Rattus norvegicus [7] it was 99.9%.

With `CCc1ccc(-n2cnc3c(sc4nccc(N(C)C)c43)c2=O)cc1`, the 50% effective dose (ED50) is 29 µmol/kg in the data set on Rattus norvegicus [8]; more than 100 µmol/kg in the data set with Rattus norvegicus [4]; more than 100 µmol/kg with Rattus norvegicus [9]; more than 300 µmol/kg with Rattus norvegicus [10]; 15 µmol/kg with Rattus norvegicus [14]; 11 µmol/kg in the data set on Rattus norvegicus [15]. The results for the ED50 in the data set on Rattus norvegicus [16] and with Rattus norvegicus [17] were 47 µmol/kg and 19 µmol/kg, respectively. In addition, the negative logarithm of the IC50 (pIC50) in data set [1] was 8.30; in data set [2], 5.88; in data set [11], less than 5.00; in data set [12] it was less than 5.00; in data set [13], less than 5.00. This compound showed an Efficacy with Rattus norvegicus [3] of 41%. Further, the Activity in the data set with Rattus norvegicus [5] is recorded as 1180 ng/g; in the data set filed under Rattus norvegicus [6] it was 25.5 ng/g; in the data set listed under Rattus norvegicus [7], 97.8%.

Take `C[N+](C)([O-])c1ccnc2sc3c(=O)n(N4CCCCCC4)cnc3c12`: the pIC50 in data set [1] is 7.48; in data set [2], less than 5.00. Moreover, in the data set on Rattus norvegicus [3], the Efficacy worked out at 12%.

`CN(C)c1ccnc2sc3c(=O)n(N4CCCCCC4)cnc3c12`: the ED50 in the data set with Rattus norvegicus [4] was 22 µmol/kg. The pIC50 in [1] was 9.00; in data set [2] it was less than 5.00. In the data set with Rattus norvegicus [3], this compound returned an Efficacy of 100%. In addition, the Activity in the data set with Rattus norvegicus [5] came out at 851 ng/g.

Source of the values: ChEMBL document CHEMBL1137234, “Correlation between brain/plasma ratios and efficacy in neuropathic pain models of selective metabotropic glutamate receptor 1 antagonists” (Bioorg Med Chem Lett, 2006).
